# Assay results as given in patent US20210284742A1, “METHODS OF TREATING OR PREVENTING MUCORMYCOSIS” (University of Maryland, Baltimore, priority 2018, published 2021).
# Columns and labels:
# [1] = tested on: A549 cells infected with R. delemar; assay: R. delemar-induced A549 cell damage (Pierce LDH assay); assay type: cell-based, human; settings: for R. delemar-induced damage of A549 alveolar epithelial cells (LDH assay): pre-treated 1 h, inhibitors present throughout, Inh III 10, AG1478 10 μM, AG825 50 μM, 24 h infection (FIG. 6)
# Protocol: Measurement of R. delemar-induced host cell damage. R. delemar-induced A549 cell damage was quantified using the Pierce LDH Assay with slight modifications to the manufacturer's protocol. Briefly, A549 cells were grown in 96-well tissue culture plates for 18-24 hours. […] For controls, host cells will be incubated with DMSO (the solvent used to reconstitute the inhibitor) or 25 μg/ml of mouse IgG antibody in parallel. After 24 hours of incubation at 37° C., 50 μl of the cell culture supernatant was collected from uninfected, infected, and fungi-only control wells and transferred to a 96 well plate to assay for LDH activity. Lysis buffer was added to all infected wells and incubated for 45 min at 37° C. After lysis, 50 μl of cell culture supernatant was transferred to a 96 well plate and used for the LDH Assay Kit per protocol. LDH release was calculated as follows: % Cytotoxicity=[Experimental release−Fungal Cells Spontaneous Control−Host Cells Spontaneous Control]/[Host Cell Maximum Control−Fungal Cells Maximum Control−Host Cells Spontaneous Control]×100. LDH is a cytosolic enzyme but will be released into the cell culture medium upon cell membrane damage. The amount of extracellular LDH is proportional to the amount of cell damage.
# (§1) R. delemar-induced A549 cell damage was quantified using the Pierce LDH assay, with slight modifications to the manufacturer's protocol. Briefly, A549 cells were grown in 96-well tissue culture plates for 18 to 24 h. Cells were then pretreated for 1 h with inhibitor and infected with 1×10^6-2×10^6 germlings suspended in 150 μl F-12K plus 10% FBS. For controls, host cells were incubated with the appropriate amount of diluent used to reconstitute the in parallel. After 24 h of incubation at 37° C., 50 μl of the cell culture supernatant was collected from uninfected, infected, and fungus-only control wells and transferred to a 96-well plate to assay for LDH activity. Lysis buffer was added to all infected wells, and the mixture was incubated for 45 min at 37° C. After lysis, 50 μl of cell culture supernatant was transferred to a 96-well plate and used for the LDH assay kit per the protocol. LDH release was calculated as follows: % cytotoxicity=[(experimental release−fungal cell spontaneous control−host cell spontaneous control)/(host cell maximum control−fungal cell maximum control−host cell spontaneous control)]×100. LDH is a cytosolic enzyme but will be released into the cell culture medium upon cell membrane damage. The amount of extracellular LDH is proportional to the amount of cell damage.
# [2] = tested on: A549 alveolar epithelial cells infected with R. delemar spores; assay: Measurement of host cell endocytosis of R. delemar by A549 cells (Uvitex differential fluorescence); assay type: cell-based, human; settings: for ability of A549 cells to endocytose R. delemar spores: Ahr inhibitor or Src inhibitor
# Protocol: Measurement of host cell endocytosis. 12-mm glass coverslips were seeded with A549 alveolar epithelial cells. […] For controls, host cells will be incubated with DMSO (the solvent used to reconstitute the inhibitor) or 25 μg/ml mouse IgG antibody in parallel. Host cells were then infected with 2×10^5 R. delemar spores. After incubation for 3 h, cells were fixed in 3% paraformaldehyde and stained for 1 h with 1% Uvitex, which specifically binds to chitin in the fungal cell wall. After washing with PBS, coverslips were mounted on a glass slide with a drop of ProLong Gold anti-fade reagent (Molecular Probes) and sealed. The total number of cell-associated organisms (i.e. fungi adhering to the monolayer) per high-powered field were determined by phase-contrast microscopy. The same field will be examined by epifluorescence microscopy, and the number of brightly fluorescent, uninternalized fungi were determined. The number of endocytosed organisms was calculated by subtracting the number of fluorescent fungi from the total number of visible fungi. At least 400 organisms were counted per treatment group in at least 15 different fields per coverslip. Experiments were performed in duplicate or triplicate on at least two separate days.
# 12-mm glass coverslips in 12 well dishes will be seeded with A549 alveolar epithelial cells. Cells were then pre-treated 1 h with inhibitors. For controls, host cells were incubated with the appropriate amount of diluent used to reconstitute the inhibitor in parallel. Host cells were then infected with 2×10^6 Rdelemar. After incubation for 3 h, cells were fixed in 3% paraformaldehyde and stained for 1 h with 1% Uvitex, which specifically binds to chitin in the fungal cell wall. After washing with PBS, coverslips were mounted on a glass slide with a drop of ProLong Gold anti-fade reagent (Molecular Probes) and sealed. The total number of cell-associated organisms (i.e., fungi adhering to the monolayer) per high-powered field was determined by phase-contrast microscopy. The same exact field was examined by epifluorescence microscopy, and the number of brightly fluorescent, uninternalized fungi will be determined. The number of endocytosed organisms is calculated by subtracting the number of fluorescent organisms from the total number of visible organisms. At least 400 organisms were counted in at least 15 different fields per coverslip. Experiments were performed in duplicate on separate days. Data will be expressed as median f interquartile range.
# [3] = tested on: A549 cells infected with R. oryzae; assay: R. oryzae-induced damage of A549 cells (LDH assay); assay type: cell-based, human; settings: 25 μM Mifepristone overnight and/or 25 μM Gefitinib 1 h, 24 h infection (FIG. 14)
# Protocol: as §1, with “Cells were then pretreated for 1 h with inhibitor and infected with 1×10^6-2×10^6 germlings suspended in 150 μl F-12K plus 10% FBS.” left out
# [4] = tested on: A549 cells infected with M. circinelloides; assay: M. circinelloides-induced damage of A549 cells (LDH assay); assay type: cell-based, human; settings: 25 μM Mifepristone overnight and/or 25 μM Gefitinib 1 h, 24 h infection (FIG. 14)
# [5] = tested on: A549 cells infected with L. corymbifera; assay: L. corymbifera-induced damage of A549 cells (LDH assay); assay type: cell-based, human; settings: 25 μM Mifepristone overnight and/or 25 μM Gefitinib 1 h, 24 h infection (FIG. 14)
# [6] = tested on: A549 cells infected with C. bertholletiae; assay: C. bertholletiae-induced damage of A549 cells (LDH assay); assay type: cell-based, human; settings: 25 μM Mifepristone overnight and/or 25 μM Gefitinib 1 h, 24 h infection (FIG. 14)
# [7] = tested on: HUVECs infected with R. delemar; settings: inhibition of PDGFR phosphorylation; cited from earlier work
# [8] = tested on: R. delemar; assay: Neutropenic mouse model of pulmonary mucormycosis, survival; assay type: in vivo, mice
# Protocol: Murine models of Mucormycosis. Male ICR mice (20-25 g from Envigo) were immunosuppresed by cyclophosphamide (200 mg/kg administered intraperotenually [i.p]) and cortisone acetate (500 mg/kg, adminstered subcutaneously) given on days −2, +3, and +9 relative to infection. […] To control for bacterial infection, immunosuppressed mice received 50 mg/L Baytrial (enrofloxacin: Bayer, Leverkusen, Germany) ad libitum on Day −3 thorough Day 0, after which Baytril was replaced with daily ceftazidime (5 mg/mouse) treatment adminstered subcutaneously through day+13 days post infection. Mice were infected with 2.5×10^5 spores of R. delemar 99-880 in 25 μL PBS given intratracheally as previously described (Luo G, Gebremariam T, Lee H, French S W, Wiederhold N P, Patterson T F, Filler S G, Ibrahim A S. 2013. Efficacy of liposomal amphotericin B and posaconazole in intratracheal models of murine mucormycosis. Antimicrobial agents and chemotherapy 57:3340-7). […] Placebo mice received DMA:PEG300. Survival of mice served as the primary endpoint with moribund mice humanely euthanized. To determine effect of treatment on tissue fungal burden mice were immunosuppressed and infected as above. Gefitinib treatment started 4 post infection and continued through Day +3. On Day +4, mice were sacrificed and lungs and brains, representing primary and secondary target organs (Luo G, Gebremariam T, Lee H, French S W, Wiederhold N P, Patterson T F, Filler S G, Ibrahim A S. 2013. Efficacy of liposomal amphotericin B and posaconazole in intratracheal models of murine mucormycosis. Antimicrobial agents and chemotherapy 57:3340-7), were collected and processed for tissue fungal burden by qPCR (Ibrahim A S, Bowman J C, Avanessian V, Brown K, Spellberg B, Edwards J E, Jr., Douglas C M. 2005. Caspofungin inhibits Rhizopus oryzae 1,3-beta-D-glucan synthase, lowers burden in brain measured by quantitative PCR, and improves survival at a low but not a high dose during murine disseminated zygomycosis. Antimicrobial agents and chemotherapy 49:721-7.) Values are expressed as Log10 spore equivalents per gram tissue.
# Statistical Analyses. In vitro experiments were performed in triplicate on two or three separate days. Data were expressed as median±interquartile range. Treatment groups were compared to controls using the Wilcoxon rank-sum test and P values <0.05 were considered significant. For the murine studies, survival of mice was analyzed using the Log Rank test, whereas differences in tissue fungal burden were analyzed by the Wilcoxon Rank Sum test using Graph pad Prism 6. P values of <0.05 were considered significant.
molecule,measurement,setting,value
COc1cc(/C=C(\C#N)C(N)=O)cc(CSc2nc3ccccc3s2)c1O [AG825],R. delemar-induced damage of A549 alveolar epithelial cells (LDH assay),[1],greater reduction in damage
COc1cc2ncnc(Nc3cccc(Cl)c3)c2cc1OC [AG1478],R. delemar-induced damage of A549 alveolar epithelial cells (LDH assay),[1],greater reduction in damage
Cc1ccccc1N=Nc1ccc(NC(=O)c2ccnn2C)c(C)c1 [CH-223191],ability of A549 cells to endocytose R. delemar spores,[2],Neither of the inhibitors altered
CC#C[C@]1(O)CC[C@H]2[C@@H]3CCC4=CC(=O)CCC4=C3[C@@H](c3ccc(N(C)C)cc3)C[C@@]21C [Mifepristone],R. delemar invasion / endocytosis,"[2]; Example 3, 25 μM Mifepristone overnight and/or 25 μM Gefitinib 1 h, 3 h infection (FIG. 13)",reduction
same,R. delemar-induced damage of alveolar epithelial cells (LDH assay),"[1]; Example 3, Mifepristone 25 / Gefitinib 25, 24 h infection, vs vehicle (FIG. 12)",decrease
same,R. oryzae-induced damage,[3],a significant decrease in damage was not seen
same,M. circinelloides-induced damage,[4],a significant decrease in damage was not seen
same,L. corymbifera-induced damage,[5],significantly decreased
same,C. bertholletiae-induced damage,[6],a significant decrease in damage was not seen
COc1cc2ncnc(N3CCN(C(=O)Nc4ccc(Oc5ccccc5)cc4)CC3)c2cc1OC [PDGFR tyrosine kinase inhibitor III],R. delemar-induced damage of A549 alveolar epithelial cells (LDH assay),[1],modestly but significantly reduces
same,R. delemar-induced damage of HUVECs,[7],significantly reduces
CC[C@@H]([C@H](C)O)n1ncn(-c2ccc(N3CCN(c4ccc(OC[C@@H]5CO[C@@](Cn6cncn6)(c6ccc(F)cc6F)C5)cc4)CC3)cc2)c1=O [posaconazole],18-day survival,"[8]; delayed treatment beginning 30 h post infection for 6 consecutive days, 10 mg/kg gefitinib, 20 mg/kg posaconazole or both",0%
same,"protection from pulmonary mucormycosis, delayed administration","[8]; treatment delayed for 30 h post infection, administered alone",did not
"EGF [epidermal growth factor, EGFR ligand]",R. delemar-induced damage with EGF addition (LDH assay),[1]; A549 cells pretreated (and cotreated) with EGF 1 h prior to 24 h infection (FIG. 15),no increase in damage was observed
Src Kinase Inhibitor I I,ability of A549 cells to endocytose R. delemar spores,[2],Neither of the inhibitors altered
